Reference: US12178802B1, “3-(1-(3-(dimethylamino)propyl)-4,5-diphenyl-1H-imidazol-2-yl)pyridin-2-ol as an antitumor and antimicrobial compound” (KING FAISAL UNIVERSITY, priority 2023, dated 2024)

Experiments:
Experiment in all cases: cup-plate agar diffusion antimicrobial activity
Type in all cases: cell-based
[1] = tested on: Staphylococcus aureus
Source text: (§1) Antibacterial activity of the synthesized compound has been tested using Gram-negative strains such as Escherichia coli, Salmonella enteric, Pseudomonas aeruginosa, and Pseudomonas putida; and Gram-positive strains such as Staphylococcus aureus, Staphylococcus epidermidis, Bacillus subtilis, and Micrococcus luteus. Additionally, antifungal activity has been tested using different Candida strains such as Candida albicans, Candida glabrata, and Candida krusei.
(§2) The present compound 3-(1-(3-(Dimethylamino)propyl)-4,5-diphenyl-1H-imidazol-2-yl)pyridin-2-ol was dissolved in DMF followed by dilution in buffer to obtain final concentrations of 60,000, 30,000 and 15,000 ppm. The final concentration of DMF was less than 2% in the final buffer solutions.
(§3) Negative control was performed using DMF diluted to similar final concentrations of compound solutions. Ampicillin and Geneticin were used as positive controls with similar dilutions and final concentrations.
(§4) Using the cup-plate agar diffusion method, a definite volume of the microbial suspension (inoculums) was mixed with sterilized agar media. Plates were prepared and left to solidify and then wells were prepared using a sterile cork borer. The wells were filled with an equal volume of a solution of synthesized compounds and standard drugs. The plates were incubated for a definite time under specified conditions. The zones of inhibition were measured in cm as a parameter of antimicrobial activity.
(§5) The tested antimicrobial activity of the 3-(1-(3-(Dimethylamino)propyl)-4,5-diphenyl-1H-imidazol-2-yl)pyridin-2-ol, as compared to ampicillin, can be seen in Table 1, below, with zones of inhibition measured in cm.

[2] = tested on: Pseudomonas putida
Source text: as §1, §2, §3, §4, §5

[3] = tested on: Staphylococcus epidermidis
Source text: as §1, §2, §3, §4, §5

[4] = tested on: Pseudomonas aeruginosa
Source text: as §1, §2, §3, §4, §5

[5] = tested on: Salmonella enterica
Source text: as §1, §2, §3, §4, §5

[6] = tested on: Bacillus subtilis
Source text: as §1, §2, §3, §4, §5

[7] = tested on: Escherichia coli
Source text: as §1, §2, §3, §4, §5

[8] = tested on: Micrococcus luteus
Source text: as §1, §2, §3, §4, §5

`CN(C)CCCn1c(-c2cccnc2O)nc(-c2ccccc2)c1-c1ccccc1` [3-(1-(3-(Dimethylamino)propyl)-4,5-diphenyl-1H-imidazol-2-yl)pyridin-2-ol] showed a zones of inhibition ([1]; concentration 15) of 2.0 cm, a zones of inhibition ([1]; concentration 30) of 2.9 cm and a zones of inhibition ([1]; concentration 60) of 3.9 cm. For the same compound, the zones of inhibition ([2]; concentration 15) was 0.1 cm, the zones of inhibition ([2]; concentration 30) was 0.5 cm and the zones of inhibition ([2]; concentration 60) was 1.1 cm. For the same compound, the zones of inhibition ([3]; concentration 15) was 2.1 cm, the zones of inhibition ([3]; concentration 30) was 3.0 cm and the zones of inhibition ([3]; concentration 60) was 3.3 cm. The zones of inhibition ([4]; concentration 15) was 0.6 cm, the zones of inhibition ([4]; concentration 30) was 0.7 cm and the zones of inhibition ([4]; concentration 60) was 1.1 cm. For the same compound, the zones of inhibition ([5]; concentration 15) was 0.7 cm, the zones of inhibition ([5]; concentration 30) was 1.0 cm and the zones of inhibition ([5]; concentration 60) was 1.7 cm. It also gave a zones of inhibition ([6]; concentration 15) of 1.1 cm, a zones of inhibition ([6]; concentration 30) of 1.5 cm and a zones of inhibition ([6]; concentration 60) of 2.7 cm. It also gave a zones of inhibition ([7]; concentration 15) of 0.6 cm, a zones of inhibition ([7]; concentration 30) of 0.9 cm and a zones of inhibition ([7]; concentration 60) of 1.00 cm. For the same compound, the zones of inhibition ([8]; concentration 15) was 1.2 cm, the zones of inhibition ([8]; concentration 30) was 2.4 cm and the zones of inhibition ([8]; concentration 60) was 3.2 cm.
With `CC1(C)S[C@@H]2[C@H](NC(=O)[C@H](N)c3ccccc3)C(=O)N2[C@H]1C(=O)O` [Ampicillin] the zones of inhibition ([1]; concentration 15) was 2.9 cm, the zones of inhibition ([1]; concentration 30) was 3.5 cm and the zones of inhibition ([1]; concentration 60) was 4.0 cm. It also gave a zones of inhibition ([2]; concentration 15) of 0.3 cm, a zones of inhibition ([2]; concentration 30) of 0.6 cm and a zones of inhibition ([2]; concentration 60) of 1.0 cm. It also gave a zones of inhibition ([3]; concentration 15) of 2.5 cm, a zones of inhibition ([3]; concentration 30) of 3.0 cm and a zones of inhibition ([3]; concentration 60) of 3.5 cm. It also gave a zones of inhibition ([4]; concentration 15) of 0.4 cm, a zones of inhibition ([4]; concentration 30) of 0.8 cm and a zones of inhibition ([4]; concentration 60) of 1.2 cm. For the same compound, the zones of inhibition ([5]; concentration 15) was 0.9 cm, the zones of inhibition ([5]; concentration 30) was 1.3 cm and the zones of inhibition ([5]; concentration 60) was 1.6 cm. It also gave a zones of inhibition ([6]; concentration 15) of 1.2 cm, a zones of inhibition ([6]; concentration 30) of 1.9 cm and a zones of inhibition ([6]; concentration 60) of 2.3 cm. The zones of inhibition ([7]; concentration 15) was 0.4 cm, the zones of inhibition ([7]; concentration 30) was 0.8 cm and the zones of inhibition ([7]; concentration 60) was 1.2 cm. The zones of inhibition ([8]; concentration 15) was 1.8 cm, the zones of inhibition ([8]; concentration 30) was 2.8 cm and the zones of inhibition ([8]; concentration 60) was 3.6 cm.
